Patent US10793614B2, “Antagonists of fish reproduction” (Yissum Research Development Company of the Hebrew …, priority 2014, dated 2020)
Numbered stars: 1 amine (or outer) side, 2 acyl side, 3 side chain; on linkers, the order of the positions; unused ones are H or OH. Square brackets hold non-standard residues; d marks the D form. Suc = O=C(CCC(=O)[*:2])[*:1]; NMeV = CN[C@H](C(=O)O)C(C)C; βAla = NCCC(=O)O

How the values were obtained:
[1] = tested on: Tilapia tac3ra and tac3rb; assay: CRE-luciferase reporter assay in COS-7 cells transfected with tilapia tac3 receptor; format: cell-based; settings: for effect of antagonist alone on luciferase activity (CRE-Luc): no ligand; for inhibition of luciferase activity, antagonist with native ligands: different concentrations added concomitantly with 0.1 nM NKB or NKF
Source text: There are two signal transduction pathways, one is relayed trough cAMP/PKA (protein kinase A), and the second is trough Ca2+/PKC. The PKA pathway is activated by CRE (cAMP response element) and the PKC through SRE ([…] response element).
In order to differentiate between the PKC and PKA signal transduction pathways, a sensitive luciferase (LUC) reporter gene assay was utilized by using the LUC transcriptionally regulated by a serum response element (SRE; Invitrogen) or cyclic AMP (cAMP) response element (CRE; Invitrogen). Tilapia tac3ra and tac3rb (GenBank accession numbers KF471674 and KF471675, respectively) or zebrafish tac3ra and tac3rb (JF317292, and JF317293, respectively) were cloned in pcDNA3.1 expression vector (Zeo-; Invitrogen) under the control of the CMV promoter.
Transient transfection, cell procedures and stimulation protocols were generally according to (Levavi-Sivan et al., 2005, Mol Cell Endocrinol 236:17-30; Biran et al., 2008, ibid, Biran et al., 2012, ibid, Biran et al., 2014 ibid). Briefly, COS-7 cells were grown in DMEM supplemented with 10% FBS, 1% glutamine, 100 U/ml penicillin, and […] streptomycin (Biological Industries) under 5% CO2 until confluent. Cotransfection of either pc-tac3ra, pc-tac3rb (at 3 μg/plate), a reporter plasmid (at 2 μg/plate), and pCM.
Transfection was carried out with FuGENE 6.0 reagent (Roche). The cells were serum starved for 36 h, stimulated with vehicle or various concentrations of either human NKB, tilapia NKB, tilapia NKF, zebrafish NKBa, NKBb or zebrafish NKF for 6 h, and then harvested and analyzed.
Lysates prepared from the harvested cells were assayed for both luciferase activity and β-galactosidase activity, which was used as an internal standard to normalize the luciferase activity directed by the test plasmid, as described previously. Transfection experiments were performed in triplicate with three independently isolated sets.
The concentrations of ligand used were from 1 nM to 1 μM. Treatments were performed in quadruplicate in three independent experiments.
Each antagonist was added at different concentrations with a constant concentration of the wild-type NKB or NKF, at a dose of the ligand (10^−8M) that gave a response close to the ED50. The results were analyzed by Prism software, according to a non-linear regression one-site competition curve.
The effect of NKB antagonists was tested in tilapia when each antagonist was added at different concentration concomitantly with NKB at 10^−8 M ([…]). Tilapia NKB increased the luciferase activity by 1.8 fold. The various antagonists reduced this response by approximately 60% (FIG. 1A). Similar results were obtained using the SRE response (FIG. 1B). […]

[2] = tested on: gonadotropin release in tilapia; assay: In vivo gonadotropin (FSH, LH) release in sexually mature tilapia females; settings: 10, 100 or 500 μg/kg body weight injected; 1, 2, 4, 8 h; starting 1 hour after injection
Experimental: SB222200 was further tested in vivo for its NKB antagonistic activity on gonadotropin release in tilapia. Sexually mature tilapia females (0.62±0.22%; n=10/treatment) were injected with different doses of the NKB non-peptide antagonist SB222200 (10, 100 or 500 μg/kg body weight) at time 0. 1, 2, 4 and 8 hours after the injection the fish were bled from their caudal vasculature. The levels of the gonadotropins FSH and LH were determined using specific ELISA according to Aizen et al., 2007 (Aizen et al., 2007, Gen Comp Endocrinol, vol. 153, pp 323-332).

Adult male Tilapia [3] = assay: In vivo ip injection of adult male tilapia: testis histology, plasma 11KT; settings: versus control; for increase of plasma 11KT levels: 500 μg/kg BW ip every 48 h, 0 to 12 days
Experimental: Adult male Tilapia (BW 90 g) were injected ip with saline and 25% DMSO, SB2222000, or the NKB antagonists Ant-4 (500 μg/kg BW every 48 h for 2 weeks, […]). The fish were bled from the caudal blood vessels into heparinized syringes every 2 days after injection. At days 7 and 14 five fish from each group were bled, striped for sperm volume and gonads were taken for Histology. Plasma was analyzed for LH, FSH and 11KT. Blood samples were collected from the caudal vasculature and centrifuged (3000 rpm for 20 minutes at 4° C.) to obtain plasma samples, which were stored at −20° C. until assayed, ELISAs were performed according to (Aizen et al., 2007, Gen Comp Endocrinol, vol. 153, pp 323-332) for FSH and LH and according to Hurvitz et al., 2005 (Gen Comp Endocrinol 140:61-73) for 11KT 1-ketotestosterone, the main androgen in fish which is involved in spermatogenesis). FIG. 6 represents histological observations of gonads from testes of treated fish versus control fish. Fish testes are organized in cysts. […] From right to left: semen from fish injected with SB222200; semen from control fish; semen from fish injected with NKB-antagonist #4. 11KT is the main androgen in fish and is involved in spermatogenesis.

Adult male Tilapia [4] = assay: In vivo growth of injected adult male tilapia; settings: 500 μg/kg BW ip every 48 h for 2 weeks; day 21, seven days after end of treatment
Experimental: Adult male tilapia (BW 60 g) were injected ip with saline and 25% DMSO, SB2222000, or NKB antagonists Ant-6 (500 μg/kg BW every 48 h for 2 weeks, n=25 fish per group). Fish were weighed every 7 days.

Salmon tac3 receptor = assay: CRE-Luc reporter assay in COS-7 cells transfected with salmon tac3r; format: cell-based; settings: with wild-type NKB at 10^-8 M
Experimental: Similar to the in-vitro experiments performed in Example 2 in Tilapia and Zebrafish, the inhibition of NKB activity was tested in Salmon fish. Salmon tac3 receptor was cloned in pcDNA3.1 expression vector (Zeo-; Invitrogen) under the control of the CMV promoter. Transfection was carried out with FuGENE 6.0 reagent (Roche). The cells were serum starved for 36 h, stimulated with vehicle or various concentrations of either tilapia NKB for 6 h, and then harvested and analyzed. Lysates prepared from the harvested cells were assayed for both luciferase activity and β-galactosidase activity, which was used as an internal standard to normalize the luciferase activity directed by the test plasmid. Transfection experiments were performed in triplicate with three independently isolated sets. The concentrations of ligand used were from 1 nM to 1 μM. Treatments were performed in quadruplicate in three independent experiments. Each antagonist (NKB-ant 4 and NKB-ant 6) was added at different concentrations with a constant concentration of the wild-type NKB (10^−8M) that gave a response close to the ED50. The results were analyzed by Prism software, according to a non-linear regression one-site competition curve. When salmon tac3 was transfected, NKB increased the luciferase activity by 1.8 fold.

Row | Compound | effect of antagonist alone on luciferase activity (CRE-Luc) [1] | inhibition of luciferase activity, antagonist with native ligands [1] | FSH levels [2] | LH levels [2] | increase of plasma 11KT levels (Adult male Tilapia [3]) | growth (body weight) (Adult male Tilapia [4]) | reduction of the NKB luciferase response by antagonist (Salmon tac3 receptor) | histological observations of testes (Adult male Tilapia [3]; 500 μg/kg BW ip every 48 h for 2 weeks)
1 | CC(=O)N(C)C1(c2ccccc2)CCN(CCCC2(c3ccc(Cl)c(Cl)c3)CCCN(C(=O)c3ccccc3)C2)CC1 (stereo in doubt) [Osanetant (SR-142,801), (S)-(1)-N-{{3-[1-benzoyl-3-(3,4-dichlorophenyl)piperidin-3-yl]prop-1-yl}-4-phenylpiperidin-4-yl}-N-methyl acetamide] | no effect | typical inhibition curve | – | – | – | – | – | –
2 | CC[C@H](NC(=O)c1c(C)c(-c2ccccc2)nc2ccccc12)c1ccccc1 [SB222200, (S)-(2)-N-(a-ethylbenzyl)-3-methyl-2-phenylquinoline-4-carboxamide] | no effect | typical inhibition curve | significant gradual decline | significant gradual decline | significantly inhibited | significant growth | – | –
3 | Succ-Asp-Ile-D-Trp-N(Me)Val-βAla-Leu-Met-NH2 (Suc-DI[dW][NMeV][βAla]LM-NH2; SMILES CC[C@H](C)[C@H](NC(=O)[C@H](CC(=O)O)NC(=O)CCC(=O)O)C(=O)N[C@H](Cc1c[nH]c2ccccc12)C(=O)N(C)[C@H](C(=O)NCCC(=O)N[C@@H](CC(C)C)C(=O)N[C@@H](CCSC)C(N)=O)C(C)C) [Ant-4] | – | – | – | – | significantly inhibited | – | approximately 60% | more partially empty cysts with mature spermatozoa
